Source: ChEMBL document CHEMBL1201862, “PubChem BioAssay data set” (2004)
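Grown in 96-well plates, cells were treated for 48 hours with each compound at five concentrations. Insufficient inhibition: endpoint recorded as highest concentration tested. GI50 marks 50% less growth.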 Active and inactive are the calls of the source. No stated cut-off is given here; in the data, active = GI50 up to about 1.1 µM and inactive = higher.

How the values were obtained:
Experiment in all cases: NCI-60 cell line screen, 48 h
[1] = test system: 786-0
[2] = test system: A549
[3] = test system: HOP-92
[4] = test system: HT-29
[5] = test system: IGROV-1
[6] = test system: K562
[7] = test system: MCF7
[8] = test system: NCI-H460
[9] = test system: OVCAR-3
[10] = test system: OVCAR-5
[11] = test system: RPMI-8226
[12] = test system: SF-539
[13] = test system: SN12C
[14] = test system: T47D
[15] = test system: UACC-257
[16] = test system: UACC-62
[17] = test system: OVCAR-4
[18] = test system: OVCAR-8
[19] = test system: SF-268
[20] = test system: Hs-578T

| Structure (SMILES) | GI50 [1] | GI50 [2] | GI50 [3] | GI50 [4] | GI50 [5] | GI50 [6] | GI50 [7] | GI50 [8] | GI50 [9] | GI50 [10] | GI50 [11] | GI50 [12] | GI50 [13] | GI50 [14] | GI50 [15] | GI50 [16] | GI50 [17] | GI50 [18] | GI50 [19] | GI50 [20] |
| --- | --- | --- | --- | --- | --- | --- | --- | --- | --- | --- | --- | --- | --- | --- | --- | --- | --- | --- | --- | --- |
| COC(=O)Cc1c(-c2c(CC(=O)OC)c3ccccc3n2C2OC(COC3OC(COC(C)=O)C(OC(C)=O)C(OC(C)=O)C3OC(C)=O)C(O)C(O)C2O)[nH]c2ccccc12 (centres undefined) | 37 µM (inactive) | > 100 µM (inactive) | 27.9 µM (inactive) | > 100 µM (inactive) | 75.3 µM (inactive) | > 100 µM (inactive) | > 100 µM (inactive) | > 100 µM (inactive) | > 100 µM (inactive) | > 100 µM (inactive) | > 100 µM (inactive) | 51.5 µM (inactive) | > 100 µM (inactive) | > 100 µM (inactive) | > 100 µM (inactive) | > 100 µM (inactive) | – | – | – | – |
| Cn1c(C(O)C2(c3cccnc3)SCCCS2)cc2ccccc21 (centres undefined) | > 100 µM (inactive) | > 100 µM (inactive) | > 100 µM (inactive) | > 100 µM (inactive) | 30 µM (inactive) | 41.1 µM (inactive) | 59.2 µM (inactive) | 99.3 µM (inactive) | 36.6 µM (inactive) | > 100 µM (inactive) | 38.5 µM (inactive) | – | > 100 µM (inactive) | 51.1 µM (inactive) | 53.3 µM (inactive) | 88.3 µM (inactive) | 67.8 µM (inactive) | > 100 µM (inactive) | > 100 µM (inactive) | – |
| O=C(O)c1[nH]c(C(=O)O)c(CC(F)(F)C(F)(F)C(F)(F)F)c1CC(F)(F)C(F)(F)C(F)(F)F | > 100 µM (inactive) | > 100 µM (inactive) | 39.9 µM (inactive) | > 100 µM (inactive) | > 100 µM (inactive) | > 100 µM (inactive) | – | > 100 µM (inactive) | > 100 µM (inactive) | > 100 µM (inactive) | > 100 µM (inactive) | > 100 µM (inactive) | > 100 µM (inactive) | – | > 100 µM (inactive) | > 100 µM (inactive) | > 100 µM (inactive) | > 100 µM (inactive) | > 100 µM (inactive) | – |
| CC(/C=C/c1ccccc1)=N\NC(N)=S | 34 µM (inactive) | 47.5 µM (inactive) | > 100 µM (inactive) | 56.6 µM (inactive) | 21 µM (inactive) | – | 33 µM (inactive) | 61.2 µM (inactive) | 24.5 µM (inactive) | 58.5 µM (inactive) | 33.7 µM (inactive) | 31.7 µM (inactive) | 42.1 µM (inactive) | 11.8 µM (inactive) | 47.9 µM (inactive) | – | – | 39 µM (inactive) | 61.7 µM (inactive) | – |
| C1=Cc2nc1c(-c1ccccc1)c1nc(c(-c3ccccc3)c3ccc([nH]3)c(-c3ccccc3)c3ccc([nH]3)c2-c2ccccc2)C=C1 [TETRAPHENYLPORPHYRIN] | > 100 µM (inactive) | > 100 µM (inactive) | > 100 µM (inactive) | > 100 µM (inactive) | > 100 µM (inactive) | > 100 µM (inactive) | – | > 100 µM (inactive) | > 100 µM (inactive) | > 100 µM (inactive) | > 100 µM (inactive) | > 100 µM (inactive) | > 100 µM (inactive) | – | > 100 µM (inactive) | > 100 µM (inactive) | > 100 µM (inactive) | > 100 µM (inactive) | > 100 µM (inactive) | – |
| C=CCN1/C(=C2\SC(=S)N(c3ccc(C)cc3)C2=O)Sc2c1nc[nH]c2=O | > 100 µM (inactive) | > 100 µM (inactive) | > 100 µM (inactive) | > 100 µM (inactive) | 64.9 µM (inactive) | > 100 µM (inactive) | – | > 100 µM (inactive) | > 100 µM (inactive) | > 100 µM (inactive) | > 100 µM (inactive) | 48.3 µM (inactive) | 77.1 µM (inactive) | – | > 100 µM (inactive) | > 100 µM (inactive) | 96.2 µM (inactive) | > 100 µM (inactive) | > 100 µM (inactive) | – |
| CCOc1cc2c(cc1O)/C(=N\O)C[C@@H]1[C@@H]2CC[C@]2(C)[C@@H](O)CC[C@@H]12 | < 0.0208 µM (active) | 0.0521 µM (active) | 0.00782 µM (active) | 6.71 µM (inactive) | 0.628 µM (active) | < 0.0173 µM (active) | < 0.0195 µM (active) | < 0.0198 µM (active) | – | 5.85 µM (inactive) | 0.0238 µM (active) | 0.00256 µM (active) | < 0.0216 µM (active) | – | 33.3 µM (inactive) | < 0.0191 µM (active) | 6.34 µM (inactive) | < 0.028 µM (active) | < 0.031 µM (active) | < 0.0221 µM (active) |
| CCOC(=O)CCn1ncc(Cl)c(Cl)c1=O | 14.3 µM (inactive) | 15.6 µM (inactive) | 11.9 µM (inactive) | 4.24 µM (inactive) | 11.1 µM (inactive) | 2.79 µM (inactive) | – | 11.9 µM (inactive) | 3.57 µM (inactive) | 16.7 µM (inactive) | 2.38 µM (inactive) | 13.9 µM (inactive) | 13.7 µM (inactive) | – | 11.2 µM (inactive) | 6.3 µM (inactive) | 1.54 µM (inactive) | 5.98 µM (inactive) | 7.55 µM (inactive) | – |
| O=C(NCCO)c1c(O)c2ccccc2[nH]c1=O | > 100 µM (inactive) | > 100 µM (inactive) | > 100 µM (inactive) | > 100 µM (inactive) | > 100 µM (inactive) | > 100 µM (inactive) | > 100 µM (inactive) | > 100 µM (inactive) | > 100 µM (inactive) | > 100 µM (inactive) | > 100 µM (inactive) | > 100 µM (inactive) | > 100 µM (inactive) | – | > 100 µM (inactive) | – | > 100 µM (inactive) | > 100 µM (inactive) | > 100 µM (inactive) | > 100 µM (inactive) |
| NCCCC1NC(=O)/C(=C(O)/C=C/C2CCC[C@@H]2CC2SCCS2)C1=O (some centres undefined) | > 100 µM (inactive) | > 100 µM (inactive) | 38.3 µM (inactive) | > 100 µM (inactive) | > 100 µM (inactive) | 31.2 µM (inactive) | – | > 100 µM (inactive) | > 100 µM (inactive) | > 100 µM (inactive) | > 100 µM (inactive) | > 100 µM (inactive) | > 100 µM (inactive) | – | 76.9 µM (inactive) | > 100 µM (inactive) | > 100 µM (inactive) | > 100 µM (inactive) | > 100 µM (inactive) | – |
| O=C1/C(=C\c2ccccc2)C2/C(=C\c3ccccc3)C(=O)/C(=C\c3ccccc3)C2/C1=C\c1ccccc1 (centres undefined) | 1.22 µM (inactive) | 2.48 µM (inactive) | 1.69 µM (inactive) | 1.34 µM (inactive) | 2.01 µM (inactive) | 0.565 µM (active) | – | 1.9 µM (inactive) | 1.73 µM (inactive) | 1.41 µM (inactive) | 0.336 µM (active) | 2.35 µM (inactive) | 2.01 µM (inactive) | – | 1.79 µM (inactive) | 1.9 µM (inactive) | 1.21 µM (inactive) | 0.412 µM (active) | 2.58 µM (inactive) | – |
| CCOC(=O)/C=C(/C(=O)OCC)n1cc(Cl)c(=O)n(CC(=O)OCC)c1=O | 0.828 µM (active) | 6.41 µM (inactive) | 5.15 µM (inactive) | 4.56 µM (inactive) | 4.76 µM (inactive) | 2.1 µM (inactive) | 22.9 µM (inactive) | 9.02 µM (inactive) | 5.98 µM (inactive) | 4.52 µM (inactive) | 2.47 µM (inactive) | 5.04 µM (inactive) | 5.64 µM (inactive) | 4.81 µM (inactive) | 4.94 µM (inactive) | 4.53 µM (inactive) | 6.03 µM (inactive) | 4.53 µM (inactive) | 7.05 µM (inactive) | – |
| CNC(=O)NCCCC(NC(C)=O)C(=O)NCc1ccccc1 (centres undefined) | > 100 µM (inactive) | > 100 µM (inactive) | 92.9 µM (inactive) | > 100 µM (inactive) | > 100 µM (inactive) | > 100 µM (inactive) | – | > 100 µM (inactive) | > 100 µM (inactive) | > 100 µM (inactive) | > 100 µM (inactive) | > 100 µM (inactive) | > 100 µM (inactive) | – | > 100 µM (inactive) | > 100 µM (inactive) | > 100 µM (inactive) | > 100 µM (inactive) | > 100 µM (inactive) | – |
| COc1ccc(NCc2cc(OC)c(OC)c(OC)c2)cc1 | 0.583 µM (active) | 0.597 µM (active) | 1.39 µM (inactive) | 0.312 µM (active) | 0.582 µM (active) | – | 0.491 µM (active) | 0.385 µM (active) | 0.255 µM (active) | – | 0.612 µM (active) | 0.265 µM (active) | 0.818 µM (active) | – | – | 0.274 µM (active) | 17.3 µM (inactive) | 0.716 µM (active) | 0.698 µM (active) | 0.641 µM (active) |
| COc1ccc(/N=C2\C(=N/c3ccc(OC)cc3)N(c3ccc(N(C)C)cc3)C(=S)N2c2ccc(OC)cc2)cc1 | 0.767 µM (active) | > 100 µM (inactive) | > 100 µM (inactive) | > 100 µM (inactive) | > 100 µM (inactive) | > 100 µM (inactive) | > 100 µM (inactive) | 10.9 µM (inactive) | > 100 µM (inactive) | > 100 µM (inactive) | 0.0532 µM (active) | 0.184 µM (active) | > 100 µM (inactive) | > 100 µM (inactive) | > 38 µM (inactive) | > 100 µM (inactive) | > 100 µM (inactive) | > 37.2 µM (inactive) | > 100 µM (inactive) | – |
| O=P1(O)c2ccccc2CCc2ccccc21 | > 100 µM (inactive) | > 100 µM (inactive) | > 100 µM (inactive) | – | > 100 µM (inactive) | > 100 µM (inactive) | > 100 µM (inactive) | – | > 100 µM (inactive) | – | > 100 µM (inactive) | > 100 µM (inactive) | > 100 µM (inactive) | – | > 100 µM (inactive) | > 100 µM (inactive) | – | > 100 µM (inactive) | > 100 µM (inactive) | > 100 µM (inactive) |
